Measurements: patent publication US20230286973A1, “PROTEIN SECRETION INHIBITORS” (KEZAR LIFE SCIENCES, priority 2020, published 2023)

Legend:
[1] = system: PD1-ss+10aa/Gaussia Luciferase; assay: Dox-Induced PD1-ss-Gluc Assay; assay type: cell-based; conditions: 24 hr Dox induction; 293FRT/TO cells; read-out: 24 hr Dox Inducible PD1ssGluc 293FRT/TO: Mean IC50
In short: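 Compounds were added in DMSO/media with doxycycline and incubated at 37 °C, 5% CO2, on 293 T-REx cells plated one day earlier. These cells stably express, under tetracycline-regulated control, a Gaussia luciferase fused to the PD1 signal peptide plus 10 residues. Structures drawn without stereochemistry were tested as stereoisomer mixtures.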

[2] = system: TNFα-FL/Gaussia Luciferase; assay: Dox Induced TNFα-FL-Gluc Assay; assay type: cell-based; conditions: for IC50: 24 hr Dox induction, 293FRT/TO cells, read-out: 24 hr Dox Inducible TNFaFLGluc 293FRT/TO: Mean IC50; for 24 hr Dox Inducible TNFaFLGluc 293FRT/TO: TNF/PD1: ratio of TNFaFLGluc IC50 to PD1ssGluc IC50
In short: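 Cells are seeded one day ahead, then treated with compound plus doxycycline at 37 °C, 5% CO2. The stable Flp-In 293 T-REx line expresses full-length TNFα (amino acids 1-233) with Gaussia luciferase fused to its 3′ end, inducibly via T-REx.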

[3] = system: HER3-ss+4aa/Gaussia Luciferase; assay: Dox-Induced Her3-ss-Gluc Assay; assay type: cell-based; conditions: 24 hr Dox induction; 293FRT/TO cells; read-out: 24 hr Dox Inducible Her3(ss + 4)Gluc 293FRT/TO: Mean IC50
In short: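 Expression of a Gaussia luciferase reporter carrying the HER3 signal sequence plus 4 amino acids is induced by doxycycline in stably transfected Flp-In 293 T-REx cells. Compounds are added with doxycycline at 37° C., 5% CO2. Undefined stereocentres denote stereoisomer mixtures.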

[4] = system: IL-2-FL/Gaussia Luciferase; assay: Dox Induced IL2-FL-Gluc Assay; assay type: cell-based; conditions: for IC50: 24 hr Dox induction, 293FRT/TO cells, read-out: 24 hr Dox Inducible IL2FLGluc 293FRT/TO: Mean IC50; for 24 hr Dox Inducible IL2FLGluc 293FRT/TO: IL2/PD1: ratio of IL2FLGluc IC50 to PD1ssGluc IC50
In short: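 Reporter is Gaussia luciferase fused to the 3′ end of full-length IL-2 (aa 1-153), expressed from a doxycycline-inducible T-REx construct in stably selected Flp-In 293 cells. Compounds were co-added with doxycycline and incubated at 37° C, 5% CO2.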

[5] = system: multiple myeloma cell line NCI-H929; assay: H929 Cell Viability Assay; assay type: cell-based, human; conditions: Homo sapiens, NCI-H929, 48 h, NCI-H929 cells, Celltiter-Glo
In short: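 Plate the myeloma cells in RPMI 1640 with 10% FBS, add serially diluted compound, incubate for 48 hours at 37° C, then add CellTiter-Glo and read luciferase signal.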

[6] = system: multiple myeloma cell line U266B1; assay: U266 Cell Viability Assay; assay type: cell-based, human; conditions: Homo sapiens, U-266, 48 h, U266B1 cells, Celltiter-Glo
In short: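 48 h treatment, 37° C./5% CO2, RPMI 1640 + 10% FBS; viability by CellTiter-Glo luminescence.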

[7] = Liver Microsome Stability Assay (rat); conditions: rat liver microsomes, with NADPH, 1.0 uM compound
Protocol: (§1) Stability of a compound was assessed in the presence of liver microsomes from various sources—mouse, rat, monkey and human liver microsomes. 1.0 uM compound, 0.4% DMSO in 0.1 M Potassium Phosphate with 1.0 mg/mL liver microsomes, were incubated at 37° C. with or without 1 mM NADPH. The samples were quenched at 0, and 30 minutes.

[8] = Liver Microsome Stability Assay (mouse); conditions: mouse liver microsomes, with NADPH, 1.0 uM compound
Protocol: as §1

[9] = Liver Microsome Stability Assay (human); conditions: human liver microsomes, with NADPH, 1.0 uM compound
Protocol: as §1

[10] = Liver Microsome Stability Assay (monkey); conditions: monkey liver microsomes, with NADPH, 1.0 uM compound
Protocol: as §1

Row | SMILES | IC50 [1] [µM] | IC50 [2] [µM] | 24 hr Dox Inducible TNFaFLGluc 293FRT/TO: TNF/PD1 [2] | IC50 [3] [µM] | IC50 [4] [µM] | 24 hr Dox Inducible IL2FLGluc 293FRT/TO: IL2/PD1 [4] | EC50 [5] [µM] | EC50 [6] [µM] | Liver Microsome Stability (Multiple Species): Rat - % Remaining after 30 min w/NADPH [7] [%] | Liver Microsome Stability (Multiple Species): Mouse - % Remaining after 30 min w/NADPH [8] [%] | Liver Microsome Stability (Multiple Species): Human - % Remaining after 30 min w/NADPH [9] [%] | Liver Microsome Stability (Multiple Species): Monkey - % Remaining after 30 min w/NADPH [10] [%]
1 | O=C(Nc1nc(/C=C/C2CCc3ccccc3N2)cs1)c1cccn1Cc1ccncc1 (stereo not drawn) [Compound B7, (E)-1-(pyridin-4-ylmethyl)-N-(4-(2-(1,2,3,4-tetrahydroquinolin-2-yl)vinyl)thiazol-2-yl)-1H-pyrrole-2-carboxamide] | 0.33 | 7.87 | 23.9 | 0.8 | 1.27 | 3.8 | 21.9 | 21.4 | 2.33 | 12.3 | 1.32 | 0.74
2 | CN1c2ccccc2CCC1/C=C/c1csc(NC(=O)c2cccn2Cc2ccncc2)n1 (stereo not drawn) [Compound B8, (E)-N-(4-(2-(1-methyl-1,2,3,4-tetrahydroquinolin-2-yl)vinyl)thiazol-2-yl)-1-(pyridin-4-ylmethyl)-1H-pyrrole-2-carboxamide] | 0.26 | 3.53 | 13.6 | 0.61 | 0.875 | 3.4 | 24.2 | > 25 | 7.12 | 5.24 | 0.69 | 0.47
3 | O=C(Nc1nc(/C=C/C2CN(S(=O)(=O)c3ccccc3)CCO2)cs1)c1cccn1Cc1ccncc1 (stereo not drawn) [Compound B9, (E)-N-(4-(2-(4-(phenylsulfonyl)morpholin-2-yl)vinyl)thiazol-2-yl)-1-(pyridin-4-ylmethyl)-1H-pyrrole-2-carboxamide] | 0.91 | > 25 | >27.5 | 1.61 | 1.85 | 2 | 15.2 | 10.4 | 3.44 | 0.31 | 0.41 | 0.17
4 | CC(=O)N1CCOC(/C=C/c2csc(NC(=O)c3cccn3Cc3ccncc3)n2)C1 (stereo not drawn) [Compound B10, (E)-N-(4-(2-(4-acetylmorpholin-2-yl)vinyl)thiazol-2-yl)-1-(pyridin-4-ylmethyl)-1H-pyrrole-2-carboxamide] | 20 | > 25 | >1.25 | > 25 | > 25 | 1.3 | > 25 | > 25 | 2.71 | 9.22 | 1.05 | 0.1
5 | O=C1NC(/C=C/c2csc(NC(=O)c3cccn3Cc3ccncc3)n2)CO1 (stereo not drawn) [Compound B12] | > 25 | > 25 | <=>1.00 | > 25 | > 25 | 1 | > 25 | > 25 | 11 | 1.41 | 3.28 | 4.16
6 | O=C1CCCC(/C=C/c2csc(NC(=O)c3cccn3Cc3ccncc3)n2)N1 (stereo not drawn) [Compound B13, (E)-N-(4-(2-(6-oxopiperidin-2-yl)vinyl)thiazol-2-yl)-1-(pyridin-4-ylmethyl)-1H-pyrrole-2-carboxamide] | > 25 | > 25 | <=>1.00 | > 25 | > 25 | 1 | > 25 | > 25 | 6.37 | 4.96 | 0.48 | 0.6
7 | O=C(Nc1nc(/C=C/C2CN(c3ccccc3)CCO2)cs1)c1cccn1Cc1ccncc1 (stereo not drawn) [Compound B18, (E)-N-(4-(2-(4-phenylmorpholin-2-yl)vinyl)thiazol-2-yl)-1-(pyridin-4-ylmethyl)-1H-pyrrole-2-carboxamide] | 0.0882 | 4.7 | 53.3 | 1.1 | 1.56 | 18 | > 25 | > 25 | 2.09 | 3.02 | 0.82 | 0.38
8 | Cc1ocnc1/C=C/c1csc(NC(=O)c2cccn2Cc2ccncc2)n1 [Compound B33, (E)-N-(4-(2-(5-methyloxazol-4-yl)vinyl)thiazol-2-yl)-1-(pyridin-4-ylmethyl)-1H-pyrrole-2-carboxamide] | 0.0637 | > 25 | >392 | 5.56 | 9.19 | 140 | 24.1 | > 25 | 0.28 | 4.32 | 0.68 | 1.26
9 | O=C(Nc1nc(/C=C/c2ncco2)cs1)c1cccn1Cc1ccncc1 [Compound B34, (E)-N-(4-(2-(oxazol-2-yl)vinyl)thiazol-2-yl)-1-(pyridin-4-ylmethyl)-1H-pyrrole-2-carboxamide] | 0.778 | > 25 | >32.1 | > 25 | > 25 | >32 | > 25 | > 25 | 0.87 | 0.97 | 0.75 | 1.77
10 | Cc1cnc(/C=C/c2csc(NC(=O)c3cccn3Cc3ccncc3)n2)o1 [Compound B35, (E)-N-(4-(2-(5-methyloxazol-2-yl)vinyl)thiazol-2-yl)-1-(pyridin-4-ylmethyl)-1H-pyrrole-2-carboxamide] | 0.466 | > 25 | >53.7 | > 25 | > 25 | >54 | > 25 | > 25 | 0.46 | 2.61 | 2.88 | 1.04
